# Measurements from patent US8933132B2, “Tricyclic substituted benzenesulfonamide piperazine derivatives as CAV2.2 calcium channel blockers” (Convergence Pharmaceuticals Limited, priority 2011, dated 2015).
# Target: T1, hCav2.2 (Homo sapiens, UniProt Q00975)
# T1 construct: expressed in transfected cells; plasmids pCIN5-hCav2.2, pCIH-hCav β3, pCIP-α2δ1
# Assay: hCav2.2 assay (IonWorks planar array electrophysiology, stable HEK293 cell line)
# Assay type: cell-based
# Conditions: inhibition of current elicited by the 1st depolarising pulse by 50%; HEK293 cells expressing human Cav2.2 α1B/β3/α2δ1; read-out: tonic pIC50 (converted)
# Method: Compounds as defined in the first to third aspects may be tested for in vitro biological activity in the hCav2.2 assay in accordance with the following studies:
# Stable cell lines expressing the human Cav2.2 α (α1B) subunit, along with the human β3 and α2δ1 auxiliary subunits were created following sequential transfection and selection of human embryonic kidney (HEK293) cells. HEK293 cells were cultured in Dulbecco's modified Eagles media/F12 media (Invitrogen, Cat #041-95750V) containing 10% fetal bovine serum, with added L-glutamine (2 mM; Invitrogen, Cat #25030-024) and non-essential amino acids (5%; Invitrogen, Cat #11140-035). Initially HEK293 cells were transfected with two plasmid vectors for expression of the hCav2.2 α subunit (pCIN5-hCav2.2 which carries a neomycin resistance marker) and the hCav β3 subunit (pCIH-hCav β3 which carries a hygromycin resistance marker). Clonal cell lines were isolated following selection in media supplemented with 0.4 mg ml^−1 Geneticin G418 (Invitrogen, Cat #10131-027) and 0.1 mg ml^−1 hygromycin (Invitrogen, Cat #10687-010). These clonal cell lines were assessed for Cav2.2 α/β3-mediated current expression using the IonWorks planar array electrophysiology technology (described below). A clonal line was identified that gave a reasonable level of functional Cav2.2 α/β3 current expression. This cell line was transfected with a plasmid vector for expression of the human α2δ1 subunit (pCIP-α2δ1 which carries a puromycin resistance marker) and clonal cell lines isolated following selection in media containing 0.62 μg ml^−1 puromycin (Sigma, Cat # P-7255), in addition to 0.4 mg ml^−1 Geneticin G418 and 0.1 mg ml^−1 hygromycin. […]
# Currents were recorded at room temperature (21-23° C.) using the IonWorks planar array electrophysiology technology (Molecular Devices Corp.). […] In all experiments, the test pulse protocol was performed in the absence (pre-read) and presence (post-read) of a compound. Pre- and post-reads were separated by a compound addition followed by a 3-3.5 min incubation. […]
# T1 sequence (Q00975 whole entry): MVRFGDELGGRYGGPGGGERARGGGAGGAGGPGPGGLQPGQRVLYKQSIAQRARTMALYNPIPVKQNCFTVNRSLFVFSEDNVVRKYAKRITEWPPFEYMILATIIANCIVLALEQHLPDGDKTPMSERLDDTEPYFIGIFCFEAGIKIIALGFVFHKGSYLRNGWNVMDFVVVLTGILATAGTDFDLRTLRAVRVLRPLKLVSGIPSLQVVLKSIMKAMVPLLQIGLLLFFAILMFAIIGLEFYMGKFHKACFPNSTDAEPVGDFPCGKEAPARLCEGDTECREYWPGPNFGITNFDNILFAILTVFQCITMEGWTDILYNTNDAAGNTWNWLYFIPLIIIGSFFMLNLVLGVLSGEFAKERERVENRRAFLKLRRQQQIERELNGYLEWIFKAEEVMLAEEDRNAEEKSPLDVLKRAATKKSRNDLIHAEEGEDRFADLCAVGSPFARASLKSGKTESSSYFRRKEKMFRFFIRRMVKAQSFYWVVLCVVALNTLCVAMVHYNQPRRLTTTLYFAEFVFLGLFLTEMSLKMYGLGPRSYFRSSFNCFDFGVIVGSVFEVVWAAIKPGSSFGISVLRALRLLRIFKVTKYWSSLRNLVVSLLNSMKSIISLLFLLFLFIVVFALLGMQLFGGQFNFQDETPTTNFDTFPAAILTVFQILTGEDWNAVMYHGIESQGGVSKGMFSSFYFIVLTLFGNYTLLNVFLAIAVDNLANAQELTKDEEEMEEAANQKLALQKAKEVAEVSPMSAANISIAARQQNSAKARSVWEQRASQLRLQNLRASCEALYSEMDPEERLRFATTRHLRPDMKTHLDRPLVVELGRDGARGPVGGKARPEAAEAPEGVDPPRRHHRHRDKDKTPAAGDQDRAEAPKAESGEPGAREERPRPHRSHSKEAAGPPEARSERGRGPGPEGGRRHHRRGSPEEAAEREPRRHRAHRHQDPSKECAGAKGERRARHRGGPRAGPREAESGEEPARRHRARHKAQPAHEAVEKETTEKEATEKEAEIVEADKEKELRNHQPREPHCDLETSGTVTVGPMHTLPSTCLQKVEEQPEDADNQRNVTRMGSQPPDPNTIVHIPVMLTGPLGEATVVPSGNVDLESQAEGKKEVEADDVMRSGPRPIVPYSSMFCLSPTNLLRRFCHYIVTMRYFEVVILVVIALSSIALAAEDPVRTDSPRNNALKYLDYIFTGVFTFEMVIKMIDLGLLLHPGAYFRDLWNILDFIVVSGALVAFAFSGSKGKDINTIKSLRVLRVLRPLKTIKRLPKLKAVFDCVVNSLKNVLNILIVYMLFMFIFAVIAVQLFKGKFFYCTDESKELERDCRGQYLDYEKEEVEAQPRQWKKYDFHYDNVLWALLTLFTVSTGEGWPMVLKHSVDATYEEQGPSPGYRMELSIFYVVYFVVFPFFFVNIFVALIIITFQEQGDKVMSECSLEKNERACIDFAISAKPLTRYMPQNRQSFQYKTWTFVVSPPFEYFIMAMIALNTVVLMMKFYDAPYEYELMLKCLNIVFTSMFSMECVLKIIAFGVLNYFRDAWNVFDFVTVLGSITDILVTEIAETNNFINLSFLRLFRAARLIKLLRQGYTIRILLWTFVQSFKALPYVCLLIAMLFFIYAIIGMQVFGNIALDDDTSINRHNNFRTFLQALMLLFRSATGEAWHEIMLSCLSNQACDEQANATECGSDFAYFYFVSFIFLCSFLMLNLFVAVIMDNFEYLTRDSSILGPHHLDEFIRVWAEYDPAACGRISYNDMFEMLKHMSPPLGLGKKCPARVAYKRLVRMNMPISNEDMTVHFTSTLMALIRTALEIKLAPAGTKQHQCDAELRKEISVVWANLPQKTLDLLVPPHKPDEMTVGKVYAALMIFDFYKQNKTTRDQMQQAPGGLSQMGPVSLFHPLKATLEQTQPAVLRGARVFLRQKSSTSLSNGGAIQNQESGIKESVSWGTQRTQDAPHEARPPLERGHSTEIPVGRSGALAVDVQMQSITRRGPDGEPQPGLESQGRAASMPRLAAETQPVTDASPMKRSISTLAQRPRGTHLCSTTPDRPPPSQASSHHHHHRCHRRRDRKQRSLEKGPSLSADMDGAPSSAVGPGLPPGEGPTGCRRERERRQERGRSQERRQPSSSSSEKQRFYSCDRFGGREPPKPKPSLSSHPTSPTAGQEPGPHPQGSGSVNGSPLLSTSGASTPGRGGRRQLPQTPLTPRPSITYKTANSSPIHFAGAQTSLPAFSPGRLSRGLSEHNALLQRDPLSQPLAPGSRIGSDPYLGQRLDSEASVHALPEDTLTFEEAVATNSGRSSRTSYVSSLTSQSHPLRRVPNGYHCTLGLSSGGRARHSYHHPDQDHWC
row,IC50 [µM],SMILES
1,100,"Cc1ccc2c(n1)C1CN(S(=O)(=O)c3ccc(OC(C)C)cc3)CCN1C2=O (stereo not drawn) [Compound 2, 2-Methyl-9-({4-[(1-methylethyl)oxy]phenyl}sulfonyl)-8,9,10,10a-tetrahydropyrido[2′,3′:3,4]pyrrolo-[1,2-a]pyrazin-5(7H)-one]"
2,≤ 31.6,"Cc1cc(C(F)(F)F)ccc1S(=O)(=O)N1CCN2C(=O)c3cccnc3C2C1 (single isomer, unassigned) [24/25 (slower running enantiomer)]"
3,≤ 31.6,"Cc1ccc2c(n1)C1CN(S(=O)(=O)c3ccc(C(F)(F)F)cc3C)CCN1C2=O (stereo not drawn) [Compound 18, 2-Methyl-9-{[2-methyl-4-(trifluoromethyl)phenyl]sulfonyl}-8,9,10,10a-tetrahydropyrido[2′,3′:3,4]pyrrolo-[1,2-a]pyrazin-5(7H)-one]"
